Source: US20260274832A1, “COMPOUNDS AND THEIR USE IN TREATING CANCER” (ASTRAZENECA AB, priority 2023, published 2026)

Legend:
[1] = biological target: T1, AR (AR-full length) in LNCaP cells (Homo sapiens, UniProt P10275, T878A); assay: LNCaP Androgen Receptor Imaging Assay (immunofluorescence of endogenous nuclear AR); assay type: cell-based; details: 24 h incubation; for DC50: concentration giving 50% of maximum degradation of AR per curve fit, single experiment or average of two or more; for Dmax: LNCaP, maximum degradation observed, normalized as % of positive control (prior art AR PROTAC at 3 μM)
T1 construct: the prostate cancer cell line LNCaP (expressing AR-full length); endogenous in cells; host or cells: LNCaP
How it was run: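 Endogenous nuclear AR level was imaged by immunofluorescence after 24 h compound exposure (12-point dose response, 0.3% DMSO, 37° C./5% CO2) in LNCaP cells. Data were expressed as % of a 3 μM prior-art AR PROTAC control and fitted (bell fit where a hook appeared) to give DC50 and maximum degradation Dmax.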

[2] = biological target: T2, AR (L702H) in LNCaP cells (Homo sapiens, UniProt P10275, L702H/T878A); assay: LNCaP Androgen Receptor L702H Imaging Assay (LNCaP cells engineered by CRISPR/Cas9); assay type: cell-based; details: LNCaP cells with AR L702H mutation, 24 h incubation; for DC50: concentration giving 50% of maximum degradation of AR (L702H) per curve fit; for Dmax: LNCaP, maximum degradation observed, normalized as % of positive control
T2 construct: engineered to introduce the mutation L702H into the AR gene using CRISPR/Cas9; endogenous in cells; host or cells: LNCaP cells edited by CRISPR/Cas9 at the AR gene
How it was run: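 AR (L702H) degradation, expressed as DC50 and Dmax from curve fits normalized to a positive degrader control, was measured by high-content imaging of anti-AR immunofluorescence. The engineered LNCaP line was dosed over 12 concentrations for 24 h, 0.3% DMSO final, before PFA fixation.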

T1 sequence (P10275 whole entry T878A): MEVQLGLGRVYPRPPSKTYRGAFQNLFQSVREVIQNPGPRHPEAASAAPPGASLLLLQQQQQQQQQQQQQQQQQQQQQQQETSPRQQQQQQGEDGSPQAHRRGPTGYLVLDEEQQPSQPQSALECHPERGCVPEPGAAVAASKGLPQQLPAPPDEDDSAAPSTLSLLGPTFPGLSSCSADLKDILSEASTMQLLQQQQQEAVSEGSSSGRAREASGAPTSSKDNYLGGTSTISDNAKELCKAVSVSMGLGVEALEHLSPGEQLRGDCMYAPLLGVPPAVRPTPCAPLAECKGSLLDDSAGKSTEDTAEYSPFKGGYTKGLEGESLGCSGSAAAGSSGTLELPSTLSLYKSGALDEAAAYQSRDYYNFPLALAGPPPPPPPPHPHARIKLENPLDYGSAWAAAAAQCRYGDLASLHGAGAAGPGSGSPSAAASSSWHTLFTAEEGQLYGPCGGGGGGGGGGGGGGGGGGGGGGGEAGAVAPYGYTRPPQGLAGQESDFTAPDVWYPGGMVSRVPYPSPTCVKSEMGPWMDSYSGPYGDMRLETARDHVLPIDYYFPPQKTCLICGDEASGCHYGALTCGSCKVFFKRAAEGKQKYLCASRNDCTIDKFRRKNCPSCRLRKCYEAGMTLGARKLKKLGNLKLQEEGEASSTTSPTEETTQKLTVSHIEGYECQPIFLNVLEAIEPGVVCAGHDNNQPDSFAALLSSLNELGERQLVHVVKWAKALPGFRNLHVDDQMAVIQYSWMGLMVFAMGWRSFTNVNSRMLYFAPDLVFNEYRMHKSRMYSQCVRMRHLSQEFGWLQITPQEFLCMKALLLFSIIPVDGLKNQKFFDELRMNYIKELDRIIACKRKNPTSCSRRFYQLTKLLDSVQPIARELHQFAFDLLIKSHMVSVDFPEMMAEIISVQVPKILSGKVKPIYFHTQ
T1 sequence (Q96SW2 whole entry partner): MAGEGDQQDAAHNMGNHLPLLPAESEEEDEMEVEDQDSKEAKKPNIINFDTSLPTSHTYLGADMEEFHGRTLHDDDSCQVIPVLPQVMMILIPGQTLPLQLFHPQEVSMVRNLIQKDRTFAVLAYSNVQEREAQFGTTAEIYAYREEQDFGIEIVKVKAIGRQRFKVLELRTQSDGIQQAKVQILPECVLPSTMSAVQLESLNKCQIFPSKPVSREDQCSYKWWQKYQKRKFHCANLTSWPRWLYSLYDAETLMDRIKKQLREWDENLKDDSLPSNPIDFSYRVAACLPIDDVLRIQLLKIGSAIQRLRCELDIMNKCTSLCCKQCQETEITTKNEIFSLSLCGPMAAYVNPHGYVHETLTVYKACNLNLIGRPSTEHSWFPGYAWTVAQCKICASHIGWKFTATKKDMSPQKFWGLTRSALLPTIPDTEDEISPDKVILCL
T2 sequence (P10275 whole entry L702H/T878A): as the sequence (P10275 whole entry T878A) above, with L702H counted along it
T2 sequence (Q96SW2 whole entry partner): as the sequence (Q96SW2 whole entry partner) above

Row | DC50 [1] [nM] | Dmax [1] [%] | DC50 [2] [nM] | Dmax [2] [%] | SMILES
1 | 9 | 94 | 8 | 101 | COc1cc(N2CCN(CC3CCN(c4ccc(C5CCN(c6ccc(F)c7c(C#N)c[nH]c67)CC5)cc4)CC3)CC2)cc2c1C(=O)N(C1CCC(=O)NC1=O)C2 (centres unmarked) [Example 20, 7-(4-{4-[4-({4-[2-(2,6-Dioxopiperidin-3-yl)-7-methoxy-1-oxo-2,3-dihydro-1H-isoindol-5-yl]piperazin-1-yl}methyl)piperidin-1-yl]phenyl}piperidin-1-yl)-4-fluoro-1H-indole-3-carbonitrile]
2 | 18 | 87 | 31 | 79 | N#Cc1c[nH]c2c(N3CCC(c4ccc(OCCCCN5CCN(c6ccc7c(c6)CN(C6CCC(=O)NC6=O)C7=O)CC5)cc4)CC3)cccc12 (centres unmarked) [Example 57]
3 | 31 | 54 | 12 | 95 | N#Cc1c[nH]c2c(C3CCCN(c4ccc(C5CCN(CC6CCN(c7ccc8c(c7)CN(C7CCC(=O)NC7=O)C8=O)CC6)CC5)cc4)C3)ccc(Cl)c12 (single isomer, unassigned) [Example 96, 4-Chloro-7-[(3R*)-1-{4-[1-({1-[2-(2,6-dioxopiperidin-3-yl)-1-oxo-2,3-dihydro-1H-isoindol-5-yl]piperidin-4-yl}methyl)piperidin-4-yl]phenyl}piperidin-3-yl]-1H-indole-3-carbonitrile]
4 | 2 | 109 | 3 | 114 | N#Cc1c[nH]c2c(N3CCC(NC(=O)c4ccc(N5CCC(CN6CCC(n7ccc8cc(N9CCC(=O)NC9=O)ccc87)CC6)CC5)cc4F)CC3)ccc(Cl)c12 [Example 153, N-[1-(4-Chloro-3-cyano-1H-indol-7-yl)piperidin-4-yl]-4-[4-({4-[5-(2,4-dioxo-1,3-diazinan-1-yl)-1H-indol-1-yl]piperidin-1-yl}methyl)piperidin-1-yl]-2-fluorobenzamide]
5 | 5 | 83 | 8 | 56 | N#Cc1c[nH]c2c(N3CCC(c4ccc(N5CCC(CN6CCN(c7ccc8c(c7)CN(C7CCC(=O)NC7=O)C8=O)CC6)CC5)nn4)CC3)ccc(Cl)c12 (centres unmarked) [Example 64, 4-Chloro-7-(4-{6-[4-({4-[2-(2,6-dioxopiperidin-3-yl)-1-oxo-2,3-dihydro-1H-isoindol-5-yl]piperazin-1-yl}methyl)piperidin-1-yl]pyridazin-3-yl}piperidin-1-yl)-1H-indole-3-carbonitrile]
6 | 4 | 98 | 2 | 107 | N#Cc1c[nH]c2c(N3CCC(c4ccc(N5CCO[C@H](CN6CCN(c7ccc8c(c7)CN(C7CCC(=O)NC7=O)C8=O)CC6)C5)cc4)CC3)ccc(F)c12 (stereo partly drawn) [Example 126, 7-(4-{4-[(2R)-2-({4-[2-(2,6-dioxopiperidin-3-yl)-1-oxo-2,3-dihydro-1H-isoindol-5-yl]piperazin-1-yl}methyl)morpholin-4-yl]phenyl}piperidin-1-yl)-4-fluoro-1H-indole-3-carbonitrile]
7 | 24 | 105 | 81 | 91 | N#Cc1c[nH]c2c(N3CCC(c4ccc(N5CC6(CCC(CN7CCC(n8ccc9c(N%10CCC(=O)NC%10=O)cccc98)CC7)CC6)C5)cc4)CC3)ccc(F)c12 [Example 135, 7-(4-{4-[7-({4-[4-(2,4-Dioxo-1,3-diazinan-1-yl)-1H-indol-1-yl]piperidin-1-yl}methyl)-2-azaspiro[3.5]nonan-2-yl]phenyl}piperidin-1-yl)-4-fluoro-1H-indole-3-carbonitrile]
8 | 13 | 98 | 46 | 97 | N#Cc1c[nH]c2c(N3CCC[C@@H](c4ccc(N5CCC(CN6CCN(c7ccc(C(=O)NC8CCC(=O)NC8=O)c(F)c7)CC6)CC5)cc4)C3)ccc(Cl)c12 (stereo partly drawn) [Example 104, 4-{4-[(1-{4-[(3S)-1-(4-chloro-3-cyano-1H-indol-7-yl)piperidin-3-yl]phenyl}piperidin-4-yl)methyl]piperazin-1-yl}-N-(2,6-dioxopiperidin-3-yl)-2-fluorobenzamide]
9 | 52 | 86 | 44 | 106 | Cc1cc(N2CCC(=O)NC2=O)cc2ccn(C3CCN(CC4CCN(c5ccc(C6CCN(c7ccc(Cl)c8c(C#N)c[nH]c78)CC6)cc5)CC4)CC3)c12 [Example 102, 4-Chloro-7-(4-{4-[4-({4-[5-(2,4-dioxo-1,3-diazinan-1-yl)-7-methyl-1H-indol-1-yl]piperidin-1-yl}methyl)piperidin-1-yl]phenyl}piperidin-1-yl)-1H-indole-3-carbonitrile]
10 | 3 | 95 | 9 | 93 | N#Cc1c[nH]c2c(N3CCC(c4cnc(N5CCC(CN6CCN(c7ccc8c(c7)CN(C7CCC(=O)NC7=O)C8=O)CC6)CC5)nc4)CC3)ccc(Cl)c12 (centres unmarked) [Example 124, 4-Chloro-7-(4-{2-[4-({4-[2-(2,6-dioxopiperidin-3-yl)-1-oxo-2,3-dihydro-1H-isoindol-5-yl]piperazin-1-yl}methyl)piperidin-1-yl]pyrimidin-5-yl}piperidin-1-yl)-1H-indole-3-carbonitrile]
11 | 6 | 99 | 6 | 100 | N#Cc1c[nH]c2c(N3CCC(c4ccc(N5CCC(CN6CCN(c7ccc8c(c7)CN(C7CCC(=O)NC7=O)C8=O)CC6)CC5)cc4)CC3)ccc(Cl)c12 (centres unmarked) [Example 1, 4-Chloro-7-(4-{4-[4-({4-[2-(2,6-dioxopiperidin-3-yl)-1-oxo-2,3-dihydro-1H-isoindol-5-yl]piperazin-1-yl}methyl)piperidin-1-yl]phenyl}piperidin-1-yl)-1H-indole-3-carbonitrile]
12 | 12 | 100 | 57 | 94 | N#Cc1c[nH]c2c(N3CCC[C@@H](c4ccc(N5CCC(CN6CCC(n7ccc8c(N9CCC(=O)NC9=O)cccc87)CC6)CC5)cc4)C3)ccc(F)c12 [Example 23, 7-[(3S)-3-{4-[4-({4-[4-(2,4-Dioxo-1,3-diazinan-1-yl)-1H-indol-1-yl]piperidin-1-yl}methyl)piperidin-1-yl]phenyl}piperidin-1-yl]-4-fluoro-1H-indole-3-carbonitrile]
13 | 9 | 92 | 5 | 94 | Cc1ccc(N2CCC(c3ccc(N4CCC(CN5CCN(Cc6cccc7c6n(C)c(=O)n7C6CCC(=O)NC6=O)CC5)CC4)cc3)CC2)c2[nH]cc(C#N)c12 (centres unmarked) [Example 69, 7-[4-(4-{4-[(4-{[1-(2,6-Dioxopiperidin-3-yl)-3-methyl-2-oxo-2,3-dihydro-1H-benzimidazol-4-yl]methyl}piperazin-1-yl)methyl]piperidin-1-yl}phenyl)piperidin-1-yl]-4-methyl-1H-indole-3-carbonitrile]
14 | 17 | 89 | 363 | 84 | N#Cc1c[nH]c2c(N3CCOC(c4ccc(N5CCC(CN6CCC(n7ccc8c(N9CCC(=O)NC9=O)cccc87)CC6)CC5)cc4)C3)ccc(Cl)c12 (single isomer, unassigned) [Example 117, 4-Chloro-7-[(2S*)-2-{4-[4-({4-[4-(2,4-dioxo-1,3-diazinan-1-yl)-1H-indol-1-yl]piperidin-1-yl}methyl)piperidin-1-yl]phenyl}morpholin-4-yl]-1H-indole-3-carbonitrile]
15 | 10 | 105 | 16 | 107 | Cn1c(C2CCN(CC3CCN(c4ccc([C@@H]5CCCN(c6ccc(Cl)c7c(C#N)n[nH]c67)C5)cc4)CC3)CC2)cc2cc(F)c(N3CCC(=O)NC3=O)cc21 [Example 139, 4-Chloro-7-[(3S)-3-{4-[4-({4-[6-(2,4-dioxo-1,3-diazinan-1-yl)-5-fluoro-1-methyl-1H-indol-2-yl]piperidin-1-yl}methyl)piperidin-1-yl]phenyl}piperidin-1-yl]-1H-indazole-3-carbonitrile]
16 | 2 | 106 | 2 | 107 | Cc1cc(N2CCC(CN3CCC(n4ccc5c(N6CCC(=O)NC6=O)cccc54)CC3)CC2)ccc1C(=O)NC1CCN(c2ccc(Cl)c3c(C#N)c[nH]c23)CC1 [Example 178, N-[1-(4-Chloro-3-cyano-1H-indol-7-yl)piperidin-4-yl]-4-[4-({4-[4-(2,4-dioxo-1,3-diazinan-1-yl)-1H-indol-1-yl]piperidin-1-yl}methyl)piperidin-1-yl]-2-methylbenzamide]

Row | SMILES | DC50 [1] [nM] | Dmax [1] [%] | DC50 [2] [nM] | Dmax [2] [%]
17 | COc1cc(N2CCN(CCCCOc3ccc(C4CCN(c5ccc(C)c6c(C#N)n[nH]c56)CC4)cc3)CC2)cc2c1C(=O)N(C1CCC(=O)NC1=O)C2 (centres unmarked) [Example 148, 7-{4-[4-(4-{4-[2-(2,6-Dioxopiperidin-3-yl)-7-methoxy-1-oxo-2,3-dihydro-1H-isoindol-5-yl]piperazin-1-yl}butoxy)phenyl]piperidin-1-yl}-4-methyl-1H-indazole-3-carbonitrile] | 20 | 99 | 52 | 89
